Tests used:
MYC/MYCN target genes = assay: RT-qPCR of MYC/MYCN target genes in Kelly cells; type: cell-based; details: 2.5 μM, 24 hours
Method: (§1) These assays were performed essentially as described in[67],[68]. For further information on immunohistochemistry, and on primers and antibodies, see Supplementary Information.

[1] = tested on: Burkitt's lymphoma cell lines Mutu, Daudi and ST486; assay: Growth of Burkitt's lymphoma cell lines; type: cell-based
Method: Cell proliferation assays. Cell growth and viability was estimated in triplicates with WST-1 (Roche) or Resazurin sodium salt (Sigma-Aldrich) assays in medium at 37°C and 5% CO 2 for 2 hours after which absorbance or fluorescence, respectively, was measured with an Omega Fluostar (BMG Labtech) in a 96 well plate format. Cell counting was done in 96 well plates with CellTracker Green (ThermoFisher) for 30 min in the incubator, after which DAPI was added for 5 min. Images were taken in the green (FITC) and blue (DAPI) channels using a fluorescence microscope (ImageXpress Micro, Molecular Devices). […]
0.7% agarose. […]

endogenous MYC:MAX = tested on: T1, endogenous MYC:MAX; assay: Coimmunoprecipitation of MAX with MYC, MDA-MB231 cells; type: cell-based; details: 5 μM, 3 hours post treatment
T1 construct: endogenous in cells; host or cells: MDA-MB231
Method: as §1

[2] = tested on: T2, bovine serum albumin (BSA); assay: MST binding to BSA; details: BSA titrated
T2 construct: purchased NanoTemper (included in the MST kit)
Method: Titration of molecules was carried out in 16 PCR tubes into which a fixed concentration of fluorescent molecule was added. The mixture was applied to capillaries (standard treated, NanoTemper), and scanned in the Monolith NT.115 to measure initial fluorescence of molecule. MST was induced and fluorescence was measured during 40 seconds. Double measurements were carried out (MST power of 20% and 40%, or 40% and 60%) for each sample. Delta fluorescence or relative fluorescence of fluorescent molecule normalized to control vehicle was plotted against titrated molecule concentration. The protein labeling kit GREEN-NHS (NanoTemper) was used to label primary amines of proteins according to manufacture’s protocol.
Data are shown as mean ± standard deviation of 5 biological repeats.

BSA = tested on: T3, BSA; assay: SPR binding to BSA; set-up: species or system bovine
T3 construct: purchased NanoTemper (included in the MST kit)
Method: (§2) The MYC SPR assay was carried out as described above with MYCbHLHZip immobilized to a level of 800–1000 RU. For kinetic binding experiments, a Langmuir 1:1 binding event was applied using the Biacore T200 Evaluation Software 2.0 (GE Healthcare) to determine association (ka) and dissociation (kd) constants of the compound and to calculate affinity (KD) by the formula; KD = kd/ka. Binding responses from equilibrium binding experiments were plotted against compound concentration and KD values were determined at 50% of the theoretical Rmax with the formula Rmax = (MW analyte/MW ligand) × immobilized ligand level on the chip (RU) × stoichiometry (1:1). Same coupling method described above was used to immobilize the control proteins. MAX was immobilized to approximately 2000 RU, MAD to 600 RU, BSA to 1000 RU, p53 to 3000 RU and BCL-XL, to 500 RU.

MYCbHLHZip:MAXbHLHZip = target: T4, MYCbHLHZip:MAXbHLHZip (Homo sapiens, UniProt P01106); assay: SPR MYC:MAX heterodimer formation assay; type: binding; details: 100 nM MYCbHLHZip over immobilized MAXbHLHZip
T4 construct: 6xHis (N); made in house; host or cells: E. coli BL21 (DE3), pET28a
T4 sequence (P01106 367-447 limits assumed): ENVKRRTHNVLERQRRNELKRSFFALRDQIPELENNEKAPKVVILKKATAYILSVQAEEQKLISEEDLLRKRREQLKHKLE
Method: The SPR method is a highly sensitive assay to determine the affinity between protein and ligand and to measure the kinetics of the interaction. In the SPR MYC:MAX interaction assay, MAXbHLHZip was covalently attached onto a sensor chip and MYCbHLHZip pre-mixed with compound was injected over the surface and thereafter allowed to dissociate.
The SPR experiments were performed at 25 °C using a Biacore T200 (GE Healthcare) instrument kindly provided by SciLifeLab Solna. An amino coupling procedure was used to immobilize protein on a CM5 sensor chip (GE Healthcare). Sensorgrams were generated by subtraction of the reference (blank immobilized) surface. All details will be described in Castell et al. (manuscript in preparation). In general, for the MYC:MAX interaction assay, 200–500 RU of MAXbHLHZip was immobilized and 100 nM MYCbHLHZip pre-incubated with compound in PBS supplemented with 0.05% Tween-20 and 1% DMSO was injected with a flow rate of 30 µl/min and allowed to dissociate. MAX was regenerated by injection of PBS buffer supplemented with Urea.

[3] = tested on: MYCN-non-amplified neuroblastoma cells (SK-N-F1, SK-N-AS, SK-N-RA); assay: Resazurin growth assay, MYCN-non-amplified neuroblastoma cell lines; type: cell-based
Text: HEK293A, MCF7, MDA-MB231, SK-N-F1, SK-N-RA, SK-N-AS, COS-7, HeLa, BJ cells, and Rat1 fibroblasts TGR-1 (wt), HO15.19 (MYC knockout) and HOmyc3 (MYC reconstituted HO15.19) were maintained in DMEM. The neuroblastoma cell lines Kelly, IMR-32 and SK-N-DZ, and the Burkitt’s lymphoma cell lines Mutu, Daudi and ST486 were kept in RPMI. SK-N-BE(2) cells were maintained in a 1:1 mixture of EMEM and F12 media, supplemented with 1% non-essential amino acid solution (NEAA) and 0.5% Glutamine. U2OS-MYC-ER cell lines were cultured in phenol-red free DMEM and treated with 100 nM 4-hydroxytamoxifen (HOT) (Sigma-Aldrich) to activate MYC-ER. IMR-90 was maintained in MEM. […]
Cell proliferation assays. Cell growth and viability was estimated in triplicates with WST-1 (Roche) or Resazurin sodium salt (Sigma-Aldrich) assays in medium at 37°C and 5% CO 2 for 2 hours after which absorbance or fluorescence, respectively, was measured with an Omega Fluostar (BMG Labtech) in a 96 well plate format. […] Images were taken in the green (FITC) and blue (DAPI) channels using a fluorescence microscope (ImageXpress Micro, Molecular Devices). […] After 16 days, the colonies were stained with 100 µg/ml MTT (Sigma) overnight and colonies were counted.
Immunohistochemistry. […] For quantification, areas with positive TUNEL and Ki67 staining were measured using Image J software. […]

BCL-XL = tested on: T5, BCL-XL; assay: SPR binding to BCL-XL
T5 construct: purchased Abcam
Method: as §2

CCOc1ccc2nc3cc(/N=N/c4ccc(N)nc4N)ccc3c(N)c2c1 [MYCMI-6]
expression of MYC/MYCN target genes (MYC/MYCN target genes): significantly inhibited
GI50 ([1]; Burkitts lymphoma cell, Mutu, Daudi, ST486, read-out: average GI50, Burkitt's lymphoma cells): 0.5 µM
lowest IC50/GI50 of tumor cell growth ([1]; neuroblastoma and Burkitt's lymphoma cells with deregulated MYCN/MYC, as low as): ≥ 0.5 µM
coimmunoprecipitation of endogenous MYC:MAX (endogenous MYC:MAX): reduced the MYC:MAX protein interaction
binding to BSA (MST) [2]: did not bind
binding to BSA (SPR) (BSA): negligible
IC50 (MYCbHLHZip:MAXbHLHZip): 3.8 µM
GI50 ([3]; Homo sapiens, SK-N-AS, 48 hours, resazurin): ≥ 20 µM
response of SK-N-F1 cell line ([3]; SK-N-F1, 48 hours): essentially did not respond at all
fold lower affinity for BCL-XL than for MYC (BCL-XL): ≥ 5 fold
binding to BCL-XL, % of the theoretical maximum (SPR) (BCL-XL; 2 μM MYCMI-6): 10%

From PMC6030159 (Scientific Reports, 2018)
